Converted amounts (≈) assume the structure as drawn.
How the values were obtained:
[1] = Inhibition of melanin in human melanocyte; format: functional, cell-based
[2] = Cytotoxicity activity against human Lucena 1 cells assessed as reduction in cell viability […] measured after 72 hrs by MTT assay; format: functional, cell-based; conditions: Lucena 1, 72 h
K562 = assay: Cytotoxicity activity against human K562 cells assessed as reduction in cell viability […] measured after 72 hrs by MTT assay; format: functional, cell-based; conditions: K562, 72 h
HL-60 = assay: Antiproliferative activity against human HL-60 cells assessed as reduction in cell viability at 12.5 ug/ml by tryphan blue staining assay; format: functional; conditions: dose 12.5 µg/ml
[3] = target: Prostaglandin G/H synthase 1 (Homo sapiens, UniProt P23219); assay: Inhibition of COX-1 (unknown origin)
Sequence of Prostaglandin G/H synthase 1 (P23219 whole entry): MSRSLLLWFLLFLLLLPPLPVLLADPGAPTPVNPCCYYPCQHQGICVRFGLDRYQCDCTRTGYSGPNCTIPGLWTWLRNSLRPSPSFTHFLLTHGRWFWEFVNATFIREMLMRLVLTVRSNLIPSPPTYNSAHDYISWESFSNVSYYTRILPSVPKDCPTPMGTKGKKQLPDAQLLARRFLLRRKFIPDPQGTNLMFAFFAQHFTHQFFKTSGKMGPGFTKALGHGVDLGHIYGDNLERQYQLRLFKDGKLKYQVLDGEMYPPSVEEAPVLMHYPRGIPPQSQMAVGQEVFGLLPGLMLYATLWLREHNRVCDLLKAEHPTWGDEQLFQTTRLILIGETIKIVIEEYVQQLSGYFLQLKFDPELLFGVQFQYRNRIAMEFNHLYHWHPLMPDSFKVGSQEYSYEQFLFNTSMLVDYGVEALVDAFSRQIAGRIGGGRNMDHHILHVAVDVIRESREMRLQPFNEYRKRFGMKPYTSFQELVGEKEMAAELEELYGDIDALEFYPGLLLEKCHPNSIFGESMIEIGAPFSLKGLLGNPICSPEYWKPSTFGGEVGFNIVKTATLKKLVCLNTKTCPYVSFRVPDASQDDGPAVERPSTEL

[4] = Antiinflammatory activity against mouse primary bone marrow derived macrophages assessed as inhibition of COX-2 at 100 ug/ml; format: functional, BMDM; set-up: scale not given: the % may be the effect or the level left; conditions: dose 100 µg/ml
RAW264.7 = assay: Antiinflammatory activity in mouse RAW264.7 cells assessed as inhibition of LPS-induced NO production at 50 uM measured after 24 hrs by Griess method; format: functional, cell-based; conditions: RAW264.7, 24 h
J774.A1 [5] = assay: Anti-inflammatory activity against mouse J774.A 1 macrophage assessed as reduction in LPS-induced IL-6 expression by RT-PCR analysis; format: functional; set-up: scale not given: the % may be the effect or the level left
J774.A1 [6] = assay: Anti-inflammatory activity against mouse J774.A 1 macrophage assessed as reduction in LPS-induced TNFalpha expression by RT-PCR analysis; format: functional; set-up: scale not given: the % may be the effect or the level left
Staphylococcus aureus [7] = assay: Antibacterial activity against methicillin-resitant Staphylococcus aureus N1 assessed as reduction in bacterial growth by microbroth dilution method; format: functional
Staphylococcus aureus [8] = assay: Antibacterial activity against methicillin-resistant Staphylococcus aureus assessed as bacterial growth inhibition; format: functional, organism-based
KB = assay: Antiproliferative activity against human KB cells assessed as reduction in cell viability after 72 hrs by SRB assay; format: functional
Neuraminidase = Neuraminidase (Influenza A virus, UniProt B4URF0); assay: Inhibition of Influenza A virus H5N1 neuraminidase
Sequence of Neuraminidase (B4URF0 whole entry): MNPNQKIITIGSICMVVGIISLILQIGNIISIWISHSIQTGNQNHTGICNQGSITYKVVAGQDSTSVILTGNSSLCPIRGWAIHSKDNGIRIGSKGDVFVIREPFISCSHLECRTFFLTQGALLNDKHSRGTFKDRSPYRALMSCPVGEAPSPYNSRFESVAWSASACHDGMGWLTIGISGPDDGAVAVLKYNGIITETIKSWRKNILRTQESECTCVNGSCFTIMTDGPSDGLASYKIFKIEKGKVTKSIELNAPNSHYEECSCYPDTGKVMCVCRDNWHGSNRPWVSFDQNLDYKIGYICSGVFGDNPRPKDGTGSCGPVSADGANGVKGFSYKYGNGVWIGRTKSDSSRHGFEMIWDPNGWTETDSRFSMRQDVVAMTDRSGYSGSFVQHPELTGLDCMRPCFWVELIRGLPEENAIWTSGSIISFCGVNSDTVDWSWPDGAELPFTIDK

Mus musculus = species on record: Mus musculus; assay: Reduction in hepatic steatosis in HFD-induced C57BL/6J mouse model assessed as reduction in serum LDL level […]; format: functional, organism-based
Staphylococcus aureus [9] = assay: Antibacterial activity against Staphylococcus aureus ATCC 25923 assessed as bacterial growth inhibition by broth dilution method; format: functional, organism-based
Staphylococcus aureus [10] = assay: Antibacterial activity against methicillin-resistant Staphylococcus aureus ATCC 25923 assessed as bacterial growth inhibition by broth dilution method; format: functional, organism-based
MDA-MB-231 = assay: Cytotoxicity against human MDA-MB-231 assessed as reduction in cell viability by MTT assay; format: functional, cell-based
HeLa = assay: Cytotoxicity against human HeLa cells assessed as reduction in cell viability by MTT assay; format: functional, cell-based
MCF7 = assay: Antiproliferative activity against human MCF7 cells assessed as inhibition of cell proliferation incubated for 72 hrs by MTT assay; format: functional, cell-based; conditions: MCF7, 72 h
[11] = Cytotoxicity against mouse RAW264.7 cells assessed as increase in NO production measured after 48 hrs by MTT assay; format: toxicity, cell-based
[12] = Cytotoxicity against mouse N9 cells assessed as reduction in cell viability incubated for 48 hrs by MTT assay; format: toxicity, cell-based
CCRF-CEM = assay: Cytotoxicity against human CCRF-CEM cells assessed as reduction in cell viability incubated for 72 hrs by MTT assay; format: functional, cell-based
Plasmodium falciparum [13] = assay: Antiplasmodial activity against Plasmodium falciparum D6 assessed as reduction in plasmodial growth after 48 hrs by fluorescence based analysis; format: functional, organism-based; conditions: D6, 48 h
A2780 = assay: Antiproliferative activity against human A2780 cells assessed as reduction in cell viability incubated for 96 hrs by MTT assay; format: functional, cell-based; conditions: A2780, 96 h
[14] = tested on: Mycobacterium tuberculosis; assay: Antimycobacterial activity against Mycobacterium tuberculosis H37Rv assessed as inhibition of bacterial growth by Microplate alamar blue assay; format: functional, organism-based
Plasmodium falciparum [15] = assay: Antiplasmodial activity against Plasmodium falciparum K1 assessed as reduction in parasite growth by fluorescence based assay; format: functional, organism-based
BMDC = assay: Anti-inflammatory activity against LPS-induced C57BL/6 mouse BMDC cells assessed as inhibition of IL-12 production at 25 uM by ELISA method; format: functional; set-up: scale not given: the % may be the effect or the level left

For COc1ccc2c(c1)OC[C@H]1c3cc(O)c(OC)c(CC=C(C)C)c3O[C@@H]21 [LESPEFLORIN G8], which IC50 [1] is on record?
The IC50 was 1.63 µM.

For COc1cc2c(cc1O)[C@H]1COC3=C(C(=O)c4ccccc4C3=O)[C@H]1O2, which IC50 [2] is on record?
The IC50 was 2.57 µM.

Which IC50 [1] does the source give for COc1ccc2c(c1)OCc1c-2oc2c3c(c(O)cc12)OC(C)(C)C=C3 [LESPEFLORIN H2] here?
Its IC50 is 1.48 µM.

Which IC50 [2] does the source give for O=C1C2=C(C(=O)c3ccccc31)[C@H]1Oc3cc(OCc4ccccc4)c(OCc4ccccc4)cc3[C@H]1CO2 here?
Its IC50 is 3.64 µM.

What about the IC50 (K562) of the same compound?
Its IC50 is 3.46 µM.

With COc1ccc2c(c1)O[C@@H]1c3ccc(O)c(O)c3OC[C@H]21 as the compound, how does the Activity (HL-60) read?
The Activity was 72.1%.

For COc1ccc2c(c1O)OC1c3ccc(O)c(OC)c3OCC21 (stereo not drawn), which IC50 [3] is on record?
The IC50 was 30.5 µM.

And the Activity [4]?
The Activity was 52.5%.

With COc1ccc2c(c1)O[C@@H]1c3ccc(OC)cc3OC[C@H]21 as the compound, how does the Activity (HL-60) read?
The Activity was 52.5%.

With CC/C=C/OC[C@H]1O[C@H](Oc2ccc3c(c2)OC[C@H]2c4ccc(OC)c(OC)c4O[C@@H]32)[C@H](O)[C@@H](O)[C@@H]1O as the compound, how does the EC50 (RAW264.7) read?
Its EC50 is 19.2 µM.

With OC[C@H]1O[C@H](Oc2ccc3c(c2)OCC2c4cc5c(cc4OC32)OCO5)[C@H](O)[C@@H](O)[C@@H]1O (stereo partly drawn) as the compound, how does the Activity (J774.A1 [5]) read?
Its Activity is 25%.

And the Activity (J774.A1 [6])?
The Activity was 25%.

Which IC50 [2] does the source give for O=C1C2=C(C(=O)c3ccccc31)[C@H]1Oc3cc4c(cc3[C@H]1CO2)OCO4 here?
Its IC50 is 5.47 µM.

And the IC50 (K562)?
Its IC50 is 4.63 µM.

For CC(C)=CCc1cc2c(cc1O)OCc1c-2oc2c(CC=C(C)C)c(O)ccc12 [ERYCRYSTAGALLIN], which MIC (Staphylococcus aureus [7]) is on record?
Its MIC is 0.78 µg/mL (≈ 2 µM).

What about the IC50 (Staphylococcus aureus [8]) of the same compound?
The IC50 was 6.25 µg/mL (≈ 16 µM).

Which Activity (KB) does the source give for CC(C)=CC[C@]12COc3c(cc(O)c4c3C=CC(C)(C)O4)[C@H]1Oc1cc3c(cc12)OCO3 here?
The Activity was 56%.

Which results are given for O=c1oc2cc(O)ccc2c2oc3cc(O)ccc3c12 [COUMESTROL]?
IC50 (Neuraminidase): 37.8 µM; IC50 (Mus musculus): 0.9 µM

With COc1ccc2c(c1CC=C(C)C)O[C@H]1c3ccc(C)cc3OC[C@@]21O as the compound, how does the IC50 (Staphylococcus aureus [9]) read?
The IC50 was 64 µg/mL (≈ 182 µM).

What about the IC50 (Staphylococcus aureus [10]) of the same compound?
The IC50 was 64 µg/mL (≈ 182 µM).

For O=c1cccc2n1C[C@@H]1C[C@H]2CN(Cc2c(O)ccc3c2OC[C@H]2c4cc5c(cc4O[C@@H]32)OCO5)C1, which IC50 (MDA-MB-231) is on record?
Its IC50 is 48.9 µM.

What about the IC50 (HeLa) of the same compound?
The IC50 was 24.3 µM.

For O=C1c2ccccc2C(=O)C2C1OCC1c3cc4c(cc3OC12)OCO4 (stereo not drawn), which IC50 (MCF7) is on record?
Its IC50 is 29 µM.

Which IC50 at 48 h [11] does the source give for C=C(C)/C(C)=C/c1c(O)ccc2c1O[C@H]1c3ccc(O)cc3OC[C@@H]21 here?
The IC50 at 48 h was 23 µM.

And the IC50 at 48 h [12]?
The IC50 at 48 h was 9.4 µM.

For CC(C)=CCc1cc2c(cc1O)OC1c3ccc(O)cc3OCC21 (stereo not drawn), which IC50 (CCRF-CEM) is on record?
Its IC50 is 3.73 µM.

For COc1ccc2c(c1CC=C(C)C)O[C@H]1c3ccc(OC(C)=O)cc3OC[C@@H]21, which IC50 (Plasmodium falciparum [13]) is on record?
Its IC50 is 34.8 µg/mL (≈ 91.5 µM).

For C=C/C(C)=C/c1c(O)ccc2c1OC[C@H]1c3cc(C)c(O)c(CC=C(C)C)c3O[C@@H]21, which IC50 [1] is on record?
The IC50 was 1.52 µM.

Which IC50 (A2780) does the source give for C=C(C)[C@H]1Cc2cc3c(cc2O1)OC[C@@H]1c2ccc(OC)c(O)c2O[C@H]31 here?
Its IC50 is 23.2 µM.

What does the source list for COc1ccc2c(c1CC=C(C)C)O[C@H]1c3cc(CC=C(C)C)c(O)cc3OC[C@@]21O [ERYSTAGALLIN A]?
IC50 [14]: 12.5 µg/mL (≈ 29.6 µM); MIC (Staphylococcus aureus [7]): 0.78 µg/mL (≈ 1.85 µM); IC50 (Plasmodium falciparum [15]): 3.8 µg/mL (≈ 8.99 µM)

For COc1cc(Br)c2c(c1CC=C(C)C)O[C@H]1c3ccc(O)cc3OC[C@@H]21, which IC50 (Plasmodium falciparum [13]) is on record?
Its IC50 is 12.9 µg/mL (≈ 30.9 µM).

Which Activity (BMDC) does the source give for COc1ccc2c(c1OC)OC1c3ccc(O[C@H]4O[C@H](CO)[C@@H](O)[C@H](O)[C@H]4O)cc3OCC21 (stereo partly drawn) here?
Its Activity is 10%.

For C=C(C)[C@@H]1Cc2cc3c(cc2O1)OC[C@@]1(O)c2ccc(O)cc2O[C@@H]31 [GLYCEOLLIN III], which IC50 (Mus musculus) is on record?
The IC50 was 45 µM.

With COc1cc2c(cc1O)O[C@@H]1C3=C(OC[C@H]21)C(=O)c1ccccc1C3=O as the compound, how does the IC50 [2] read?
The IC50 was 4.49 µM.

What about the IC50 (K562) of the same compound?
The IC50 was 4.5 µM.

— ChEMBL document CHEMBL5260799, “Pterocarpan scaffold: A natural lead molecule with diverse pharmacological properties” (Eur J Med Chem, 2017)
